The NIST ThermoML archive (doi:10.1016/j.jct.2015.07.005)
“And” between values parts separate entries of the source, which are not always exact repeats. Equal values may be shown once. ± gives the expanded uncertainty stated by the source.

Details: Gas, Frequency=0.005 MHz, Spherical cavity resonance method

COC(F)(F)C(F)(F)C(F)(F)F [heptafluoropropyl methyl ether]
Details	speed of sound
324.96 K, 164.7 kPa	110.67 ± 0.12 m/s
324.97 K, 64.71 kPa	115.86 ± 0.12 m/s and 115.86 ± 0.11 m/s
324.97 K, 95.55 kPa	114.33 ± 0.12 m/s
324.97 K, 95.56 kPa	114.33 ± 0.12 m/s
324.97 K, 95.57 kPa	114.33 ± 0.12 m/s
324.97 K, 95.59 kPa	114.33 ± 0.12 m/s
324.97 K, 133.44 kPa	112.39 ± 0.12 m/s
324.97 K, 133.45 kPa	112.39 ± 0.12 m/s
324.97 K, 164.69 kPa	110.67 ± 0.12 m/s
324.97 K, 164.72 kPa	110.67 ± 0.12 m/s
349.97 K, 63.93 kPa	120.9 ± 0.12 m/s
349.97 K, 63.94 kPa	120.9 ± 0.11 m/s
349.97 K, 154.62 kPa	117.37 ± 0.12 m/s
349.97 K, 154.64 kPa	117.37 ± 0.12 m/s
349.97 K, 235.72 kPa	113.96 ± 0.12 m/s
349.97 K, 235.74 kPa	113.96 ± 0.12 m/s
349.97 K, 235.77 kPa	113.96 ± 0.12 m/s
349.97 K, 317.58 kPa	110.17 ± 0.11 m/s
349.97 K, 317.59 kPa	110.17 ± 0.12 m/s
349.97 K, 317.63 kPa	110.17 ± 0.12 m/s
374.95 K, 63.1 kPa	125.6 ± 0.12 m/s and 125.6 ± 0.11 m/s
374.95 K, 63.11 kPa	125.6 ± 0.11 m/s
374.95 K, 160.58 kPa	122.61 ± 0.12 m/s
374.95 K, 160.6 kPa	122.61 ± 0.12 m/s
374.95 K, 285.28 kPa	118.5 ± 0.12 m/s
374.95 K, 285.32 kPa	118.5 ± 0.12 m/s
374.95 K, 285.36 kPa	118.5 ± 0.12 m/s
374.95 K, 400.83 kPa	114.37 ± 0.12 m/s
374.95 K, 400.86 kPa	114.37 ± 0.12 m/s
374.95 K, 400.9 kPa	114.36 ± 0.12 m/s
374.95 K, 510.48 kPa	110.03 ± 0.12 m/s
374.95 K, 510.5 kPa	110.03 ± 0.12 m/s
374.95 K, 632.78 kPa	104.58 ± 0.12 m/s
374.95 K, 632.8 kPa	104.58 ± 0.12 m/s
374.95 K, 632.82 kPa	104.58 ± 0.12 m/s
374.96 K, 63.11 kPa	125.6 ± 0.11 m/s
374.96 K, 160.58 kPa	122.61 ± 0.12 m/s
399.99 K, 67.78 kPa	129.91 ± 0.11 m/s
399.99 K, 197.55 kPa	126.68 ± 0.12 m/s
399.99 K, 349.57 kPa	122.65 ± 0.12 m/s
399.99 K, 650.2 kPa	113.69 ± 0.12 m/s
399.99 K, 650.23 kPa	113.69 ± 0.12 m/s
399.99 K, 806.55 kPa	108.28 ± 0.12 m/s
399.99 K, 953.71 kPa	102.52 ± 0.12 m/s
399.99 K, 953.73 kPa	102.52 ± 0.12 m/s
399.99 K, 1130.3 kPa	94.29 ± 0.12 m/s
400 K, 67.78 kPa	129.91 ± 0.12 m/s
400 K, 197.63 kPa	126.68 ± 0.12 m/s
400 K, 197.66 kPa	126.68 ± 0.12 m/s
400 K, 349.52 kPa	122.65 ± 0.12 m/s
400 K, 349.53 kPa	122.65 ± 0.12 m/s
400 K, 502.98 kPa	118.27 ± 0.12 m/s
400 K, 503.01 kPa	118.27 ± 0.12 m/s
400 K, 503.03 kPa	118.27 ± 0.12 m/s
400 K, 805.95 kPa	108.3 ± 0.12 m/s
400 K, 805.97 kPa	108.3 ± 0.12 m/s
400 K, 805.99 kPa	108.3 ± 0.12 m/s
400 K, 806.53 kPa	108.28 ± 0.12 m/s
400 K, 806.58 kPa	108.28 ± 0.12 m/s
400 K, 953.71 kPa	102.52 ± 0.12 m/s
400 K, 1130.2 kPa	94.3 ± 0.12 m/s
424.94 K, 60.05 kPa	134.29 ± 0.12 m/s
424.94 K, 60.06 kPa	134.29 ± 0.12 m/s
424.94 K, 200.53 kPa	131.44 ± 0.12 m/s
424.94 K, 200.58 kPa	131.44 ± 0.12 m/s
424.94 K, 407.75 kPa	127 ± 0.12 m/s
424.94 K, 407.78 kPa	127 ± 0.12 m/s
424.94 K, 407.79 kPa	127 ± 0.12 m/s
424.94 K, 407.83 kPa	127 ± 0.12 m/s
424.94 K, 603.76 kPa	122.51 ± 0.12 m/s
424.94 K, 603.77 kPa	122.51 ± 0.12 m/s
424.94 K, 603.81 kPa	122.51 ± 0.12 m/s
424.94 K, 802.02 kPa	117.61 ± 0.12 m/s
424.94 K, 802.08 kPa	117.6 ± 0.12 m/s
424.94 K, 802.15 kPa	117.6 ± 0.12 m/s
424.94 K, 1005.8 kPa	112.1 ± 0.12 m/s
424.94 K, 1006 kPa	112.1 ± 0.12 m/s
424.94 K, 1006.1 kPa	112.09 ± 0.12 m/s
424.94 K, 1202.6 kPa	106.2 ± 0.12 m/s and 106.21 ± 0.12 m/s
424.94 K, 1202.7 kPa	106.2 ± 0.12 m/s
424.94 K, 1393 kPa	99.76 ± 0.12 m/s
424.94 K, 1393.1 kPa	99.76 ± 0.12 m/s
424.94 K, 1393.2 kPa	99.75 ± 0.12 m/s
424.94 K, 1607.6 kPa	91.22 ± 0.12 m/s
424.94 K, 1607.7 kPa	91.21 ± 0.12 m/s
424.94 K, 1608.4 kPa	91.18 ± 0.12 m/s
424.94 K, 1608.5 kPa	91.17 ± 0.12 m/s
424.94 K, 1608.7 kPa	91.17 ± 0.12 m/s
449.95 K, 64.75 kPa	138.25 ± 0.12 m/s
449.95 K, 64.76 kPa	138.25 ± 0.12 m/s
449.95 K, 208.64 kPa	135.84 ± 0.12 m/s
449.95 K, 208.65 kPa	135.84 ± 0.12 m/s
449.95 K, 396.59 kPa	132.57 ± 0.12 m/s
449.95 K, 396.63 kPa	132.57 ± 0.12 m/s
449.95 K, 396.66 kPa	132.57 ± 0.12 m/s
449.95 K, 606.05 kPa	128.76 ± 0.12 m/s
449.95 K, 606.08 kPa	128.76 ± 0.12 m/s
449.95 K, 606.12 kPa	128.76 ± 0.12 m/s
449.95 K, 606.24 kPa	128.76 ± 0.12 m/s
449.95 K, 606.26 kPa	128.76 ± 0.12 m/s
449.95 K, 606.27 kPa	128.76 ± 0.12 m/s
449.95 K, 809.63 kPa	124.87 ± 0.12 m/s
449.95 K, 809.64 kPa	124.87 ± 0.12 m/s
449.95 K, 1001.1 kPa	121.03 ± 0.12 m/s and 121.04 ± 0.12 m/s
449.95 K, 1209.6 kPa	116.6 ± 0.12 m/s
449.95 K, 1209.7 kPa	116.6 ± 0.12 m/s
449.95 K, 1413.8 kPa	111.99 ± 0.12 m/s
449.95 K, 1623.9 kPa	106.9 ± 0.12 m/s
449.96 K, 1001.1 kPa	121.04 ± 0.12 m/s
449.96 K, 1624.3 kPa	106.89 ± 0.12 m/s
475 K, 67.47 kPa	142.11 ± 0.12 m/s
475 K, 67.48 kPa	142.11 ± 0.12 m/s
475 K, 67.49 kPa	142.12 ± 0.12 m/s
475 K, 67.62 kPa	142.11 ± 0.12 m/s
475 K, 67.64 kPa	142.11 ± 0.12 m/s
475 K, 189.2 kPa	140.43 ± 0.12 m/s
475 K, 189.28 kPa	140.42 ± 0.12 m/s
475 K, 395.98 kPa	137.47 ± 0.12 m/s
475 K, 395.99 kPa	137.47 ± 0.12 m/s
475 K, 396.05 kPa	137.47 ± 0.12 m/s
475 K, 396.11 kPa	137.47 ± 0.12 m/s
475 K, 396.13 kPa	137.47 ± 0.12 m/s
475 K, 396.16 kPa	137.47 ± 0.12 m/s
475.01 K, 396.09 kPa	137.47 ± 0.12 m/s
475.01 K, 396.11 kPa	137.47 ± 0.12 m/s
475.01 K, 587.06 kPa	134.67 ± 0.12 m/s
475.01 K, 795.76 kPa	131.5 ± 0.12 m/s
475.01 K, 1005.5 kPa	128.23 ± 0.12 m/s
475.01 K, 1197.2 kPa	125.14 ± 0.12 m/s
475.01 K, 1402 kPa	121.75 ± 0.12 m/s
475.01 K, 1402.1 kPa	121.75 ± 0.12 m/s
475.02 K, 795.76 kPa	131.5 ± 0.12 m/s
475.02 K, 1005.5 kPa	128.23 ± 0.12 m/s
475.02 K, 1197.2 kPa	125.14 ± 0.12 m/s
475.02 K, 1402.1 kPa	121.75 ± 0.12 m/s
475.02 K, 1583.1 kPa	118.65 ± 0.12 m/s
475.02 K, 1583.2 kPa	118.65 ± 0.12 m/s
500.01 K, 62.05 kPa	145.96 ± 0.12 m/s
500.01 K, 62.06 kPa	145.96 ± 0.12 m/s
500.01 K, 62.27 kPa	145.95 ± 0.12 m/s
500.01 K, 192.99 kPa	144.43 ± 0.12 m/s
500.01 K, 193.25 kPa	144.42 ± 0.12 m/s
500.01 K, 193.35 kPa	144.42 ± 0.12 m/s
500.01 K, 400.4 kPa	141.96 ± 0.12 m/s
500.01 K, 400.43 kPa	141.96 ± 0.12 m/s
500.01 K, 400.48 kPa	141.96 ± 0.12 m/s
500.01 K, 400.64 kPa	141.97 ± 0.12 m/s
500.01 K, 400.67 kPa	141.97 ± 0.12 m/s
500.01 K, 605.81 kPa	139.49 ± 0.12 m/s
500.01 K, 804.2 kPa	137.05 ± 0.12 m/s
500.02 K, 400.69 kPa	141.97 ± 0.12 m/s
500.02 K, 605.7 kPa	139.49 ± 0.12 m/s
500.02 K, 804.24 kPa	137.05 ± 0.12 m/s
500.02 K, 804.31 kPa	137.05 ± 0.12 m/s
500.02 K, 1002.8 kPa	134.57 ± 0.12 m/s
500.02 K, 1206.9 kPa	131.99 ± 0.12 m/s and 131.98 ± 0.12 m/s
500.02 K, 1207 kPa	131.98 ± 0.12 m/s
500.02 K, 1400.6 kPa	129.51 ± 0.12 m/s and 129.5 ± 0.12 m/s
500.02 K, 1400.7 kPa	129.5 ± 0.12 m/s
500.02 K, 1593.1 kPa	127 ± 0.12 m/s
500.03 K, 1593.1 kPa	127.01 ± 0.12 m/s and 127 ± 0.12 m/s
